Assay results from patent US20150175585A1, “FUSED QUINONIC COMPOUNDS” (CENTRO ATLANTICO DEL MEDICAMENTO S.A (CEAMED, S.A.), priority 2012, published 2015).

System: STAT3
Experiment: IL-6 induced STAT3 phosphorylation in T47D cells (Western immunoblotting)
Assay type: cell-based, human
Settings: serum deprived T47D cells; 5 μM for 0.5-3 h or 0.5-10 μM; IL-6 25 ng/ml 30 min
Experimental: FIG. 2. • Overnight serum deprived T47D cells were stimulated with IL-6 (25 ng/ml) for 3, 5, 10, 20, 30, 45 and 60 min. JAK2, pYJAK2, STAT3 and pYSTAT3 were detected using Western immunoblotting as described in methods. B) Overnight serum derived T47D cells were pre-incubated with compound 4 (C4) (5 μM) for 0.5, 1, 2, and 3 h and stimulated with 25 ng/ml for 30 min. JAK2, pYJAK2, STAT3 and pYSTAT3 were detected using Western immunoblotting as described in methods. C) Overnight serum derived T47D cells were preincubated with C4 at increasing concentrations (0.5-10 μM) for 3 h and stimulated with 25 ng/ml IL-6 for 30 min. JAK2, pJAK2, STAT5 and pSTAT5 were detected using Western immunoblotting as described above. Equal protein loading was confirmed using a specific human anti-β-actin antibody. C—Veh: T47D cells exposed to C4 and IL-6 vehicle (0.1% DMSO and PBS, respectively) for the indicated times. C+: T47D cells exposed to C4 vehicle (0.1% DMSO) and stimulated with IL-6 (25 ng/ml) for the indicated time.
T47D cells were routinely maintained in 75-cm^2 culture flasks with vented caps at 37° C., 5% CO2 in RPMI 1640 growth media without phenol red supplemented with 10% FBS, 2 mM L-glutamine, 10 mM HEPES, 50 U/ml penicillin/50 U/ml streptomycin, and 0.3 mg/ml gentamicin. […]

In the case of `N#Cc1ccc(C2C3=C(CCCC3=O)OC3=C2C(=O)c2ccccc2C3=O)cc1` (stereo not shown) [Compound 4, 4-(1,6,11-trioxo-2,3,4,6,11,12-hexahydro-1H-benzo[b]xanthen-12-yl)benzonitrile], the “IL-6-induced STAT3 phosphorylation” value is reported as “inhibits, in a time/dose dependent manner”.
